SMILES strings stand for the structures.

T3 sequence (P04049 307-648 Y340D/Y341D): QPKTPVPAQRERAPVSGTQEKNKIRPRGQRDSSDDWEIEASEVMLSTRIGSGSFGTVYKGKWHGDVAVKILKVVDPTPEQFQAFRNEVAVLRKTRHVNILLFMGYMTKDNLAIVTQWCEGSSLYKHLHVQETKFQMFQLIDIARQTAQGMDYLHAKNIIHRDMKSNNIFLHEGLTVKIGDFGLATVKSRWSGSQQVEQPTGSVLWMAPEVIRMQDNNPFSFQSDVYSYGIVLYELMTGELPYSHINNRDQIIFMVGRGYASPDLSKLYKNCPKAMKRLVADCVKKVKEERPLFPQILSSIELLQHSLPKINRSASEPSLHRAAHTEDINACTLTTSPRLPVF

The target in one assay is T1, A-Raf kinase (Homo sapiens, UniProt P10398, Y301D/Y302D).
T1 construct: purchased Sigma
T1 sequence (P10398 with tags, fused parts or gaps Y301D/Y302D): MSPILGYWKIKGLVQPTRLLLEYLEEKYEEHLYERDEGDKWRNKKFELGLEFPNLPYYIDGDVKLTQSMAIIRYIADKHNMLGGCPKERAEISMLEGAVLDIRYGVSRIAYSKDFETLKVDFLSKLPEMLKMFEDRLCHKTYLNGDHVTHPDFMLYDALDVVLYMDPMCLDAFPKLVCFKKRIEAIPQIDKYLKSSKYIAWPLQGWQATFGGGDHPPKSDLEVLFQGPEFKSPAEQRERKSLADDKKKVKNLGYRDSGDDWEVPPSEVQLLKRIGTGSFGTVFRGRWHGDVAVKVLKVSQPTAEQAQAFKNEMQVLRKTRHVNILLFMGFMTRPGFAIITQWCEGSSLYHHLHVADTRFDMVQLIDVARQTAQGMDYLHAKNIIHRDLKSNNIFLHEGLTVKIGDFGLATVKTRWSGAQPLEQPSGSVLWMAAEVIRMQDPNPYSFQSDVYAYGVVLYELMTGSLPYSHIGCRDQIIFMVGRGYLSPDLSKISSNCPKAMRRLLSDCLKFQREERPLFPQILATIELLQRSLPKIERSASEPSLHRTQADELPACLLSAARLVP
Briefly: Biochemical assay for A-Raf.1 (coupled pyruvate kinase/lactate dehydrogenase). The settings on record: read-out: ARAF.1 IC50. The procedure: Biochemical assay for A-Raf.1
(§1) Activity of A-Raf kinase (SEQ. ID NO. 1) was determined spectroscopically using a coupled pyruvate kinase/lactate dehydrogenase assay that continuously monitors the ATP hydrolysis-dependent oxidation of NADH (e.g., Schindler et al., Science, 2000, 289, 1938-1942). Assays were conducted in 384-well plates (100 μL final volume) using 5.55 nM A-Raf (Sigma), 1.5 units pyruvate kinase, 2.1 units lactate dehydrogenase, 1 mM phosphoenol pyruvate, 0.28 mM NADH, 30.1 nM MEK (SignalChem), and 1 mM ATP in assay buffer (100 mM Tris, pH 7.5, 15 mM MgCl2, 0.5 mM DTT, 0.1% octyl-glucoside, 0.002% (w/v) BSA, and 0.002% Triton X-100). Inhibition of A-Raf was measured by adding serial diluted test compound (final assay concentration of 1% DMSO). A decrease in absorption at 340 nm was monitored continuously for 6 h at 30° C. on a multi-mode microplate reader (BioTek). The reaction rate was calculated using the 4 to 5 h time frame. The reaction rate at each concentration of compound was converted to percent inhibition using controls (i.e., reaction with no test compound and reaction with a known inhibitor) and IC50 values were calculated by fitting a four-parameter sigmoidal curve to the data using Prism (GraphPad software).
Regarding `Cc1cc(F)c(NC(=O)NCCC2(C(F)(F)F)CC2)cc1-c1cc(N2CCOCC2)nc(N2CC(N(C)C)C2)n1` [Example 30], the half-maximal inhibitory concentration (IC50) (commonly the concentration that gives 50% inhibition) is above 1000 nM.
The same measure, in the same setting: for `Cc1cc(F)c(NC(=O)NCCC2(C)CC2)cc1-c1nc(NCCO)cc(N2CCOCC2)n1` [Example 31] the value was above 1000 nM.
Take `Cc1cc(F)c(NC(=O)NCCC2(C)CC2)cc1-c1cc(OCCO)nc(-c2ccncc2)c1` [Example 32]: the IC50 was above 1000 nM.
Consider `Cc1cc(F)c(NC(=O)NCCC2(C)CC2)cc1-c1cc(OC2CCN(C)CC2)nc(-c2ccncc2)c1` [Example 36], for which the half-inhibitory concentration (IC50) is above 1000 nM.
On the same count and under the same terms, to `Cc1ccc(NC(=O)NCCC2(C)CC2)cc1-c1cc(-c2cnn(C)c2)nc(N2CCOCC2)c1` [Example 37] belongs above 1000 nM; to `Cc1cc(F)c(NC(=O)NC2CCC(F)(F)CC2)cc1-c1cc(-c2cnn(C)c2)nc(N2CCOCC2)c1` [Example 39], above 1000 nM.
On the same count and under the same terms, to `COC(C)(C)CCNC(=O)Nc1cc(-c2cc(OCCO)nc(-c3ccncc3)c2)c(C)cc1F` [Example 40] belongs above 1000 nM.

A further assay deals with T2, B-Raf kinase (Homo sapiens, UniProt P15056).
T2 construct: GST (N); purchased Sigma
T2 sequence (P15056 416-766): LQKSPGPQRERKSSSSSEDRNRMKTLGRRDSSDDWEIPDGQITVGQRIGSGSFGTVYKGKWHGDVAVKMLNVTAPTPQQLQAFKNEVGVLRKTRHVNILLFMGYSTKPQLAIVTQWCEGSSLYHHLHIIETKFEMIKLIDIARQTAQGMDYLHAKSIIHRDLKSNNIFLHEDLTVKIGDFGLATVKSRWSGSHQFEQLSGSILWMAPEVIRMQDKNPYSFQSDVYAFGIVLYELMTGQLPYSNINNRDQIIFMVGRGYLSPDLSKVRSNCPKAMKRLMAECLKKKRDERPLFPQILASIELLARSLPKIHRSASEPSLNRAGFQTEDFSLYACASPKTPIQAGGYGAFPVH
Nature of the assay: Biochemical assay for B-Raf.1 (coupled pyruvate kinase/lactate dehydrogenase). The settings on record: read-out: BRAF.1 IC50. Here is the method:
Biochemical Assay for B-Raf.1
as §1, with “B-Raf” for “A-Raf”, “NO: 2)” for “NO. 1)”, “0.13” for “5.55”
Consider `Cc1cc(F)c(NC(=O)NCCC2(C(F)(F)F)CC2)cc1-c1cc(N2CCOCC2)nc(N2CC(N(C)C)C2)n1` [Example 30], for which the 50% inhibitory concentration (IC50) is above 1000 nM.
On to `Cc1cc(F)c(NC(=O)NCCC2(C)CC2)cc1-c1nc(NCCO)cc(N2CCOCC2)n1` [Example 31], for which the IC50 was in the range of 100 to 500 nM.
The same measure, in the same setting: for `Cc1cc(F)c(NC(=O)NCCC2(C)CC2)cc1-c1cc(OCCO)nc(-c2ccncc2)c1` [Example 32] the value was at most 100 nM; for `Cc1cc(F)c(NC(=O)NCCC2(C)CC2)cc1-c1cc(OC2CCN(C)CC2)nc(-c2ccncc2)c1` [Example 36], 100 to 500 nM.
Still for that read-out and setting: to `Cc1ccc(NC(=O)NCCC2(C)CC2)cc1-c1cc(-c2cnn(C)c2)nc(N2CCOCC2)c1` [Example 37] belongs at most 100 nM.
The same measure, in the same setting: to `Cc1cc(F)c(NC(=O)NC2CCC(F)(F)CC2)cc1-c1cc(-c2cnn(C)c2)nc(N2CCOCC2)c1` [Example 39] belongs at most 100 nM; to `COC(C)(C)CCNC(=O)Nc1cc(-c2cc(OCCO)nc(-c3ccncc3)c2)c(C)cc1F` [Example 40], 100 to 500 nM.

The next assay addresses T3, C-Raf kinase (Homo sapiens, UniProt P04049, Y340D/Y341D).
T3 construct: Y340D,; GST (N); purchased Sigma
Nature of the assay: Biochemical assay for C-Raf.1 (coupled pyruvate kinase/lactate dehydrogenase). The settings on record: read-out: CRAF.1 IC50. Here is the method:
Biochemical Assay for C-Raf.1
as §1, with “C-Raf” for “A-Raf”, “NO: 3)” for “NO. 1)”, “0.43” for “5.55”
With `Cc1cc(F)c(NC(=O)NCCC2(C(F)(F)F)CC2)cc1-c1cc(N2CCOCC2)nc(N2CC(N(C)C)C2)n1` [Example 30], the IC50 lay within 500 to 1000 nM.
Same read-out and setting: to `Cc1cc(F)c(NC(=O)NCCC2(C)CC2)cc1-c1nc(NCCO)cc(N2CCOCC2)n1` [Example 31] belongs 100 to 500 nM; to `Cc1cc(F)c(NC(=O)NCCC2(C)CC2)cc1-c1cc(OCCO)nc(-c2ccncc2)c1` [Example 32], at most 100 nM.
The same measure, in the same setting: for `Cc1cc(F)c(NC(=O)NCCC2(C)CC2)cc1-c1cc(OC2CCN(C)CC2)nc(-c2ccncc2)c1` [Example 36] the value was 100 to 500 nM; for `Cc1ccc(NC(=O)NCCC2(C)CC2)cc1-c1cc(-c2cnn(C)c2)nc(N2CCOCC2)c1` [Example 37], at most 100 nM; for `Cc1cc(F)c(NC(=O)NC2CCC(F)(F)CC2)cc1-c1cc(-c2cnn(C)c2)nc(N2CCOCC2)c1` [Example 39], at most 100 nM.
Still for that read-out and setting: for `COC(C)(C)CCNC(=O)Nc1cc(-c2cc(OCCO)nc(-c3ccncc3)c2)c(C)cc1F` [Example 40] the value was 100 to 500 nM.

For the next assay, the target named is T4, B-Raf (V600E) kinase (Homo sapiens, UniProt P15056, V600E).
T4 construct: B-Raf (V600E) residues 416-766 with a; GST (N); purchased SignalChem
T4 sequence (P15056 416-766 V600E): as the sequence (P15056 416-766) above, with V185E counted along it
Briefly: Biochemical assay for B-Raf (V600E).1 (coupled pyruvate kinase/lactate dehydrogenase). Conditions: read-out: BRAF V600E.1 IC50. The procedure: Biochemical Assay for B-Raf (V600E).1
Activity of B-Raf (V600E) (SEQ. ID NO: 4) kinase was determined spectroscopically using a coupled pyruvate kinase/lactate dehydrogenase assay that continuously monitors the ATP hydrolysis-dependent oxidation of NADH (e.g., Schindler et al., Science, 2000, 289, 1938-1942). Assays were conducted in 384-well plates (100 μL final volume) using 0.03 nM B-Raf (SignalChem), 1.5 units pyruvate kinase, 2.1 units lactate dehydrogenase, 1 mM phosphoenol pyruvate, 0.28 mM NADH, 30.1 nM MEK (SignalChem), and 1 mM ATP in assay buffer (100 mM Tris, pH 7.5, 15 mM MgCl2, 0.5 mM DTT, 0.1% octyl-glucoside, 0.002% (w/v) BSA, and 0.002% Triton X-100). Inhibition of B-Raf (V600E) was measured by adding serial diluted test compound (final assay concentration of 1% DMSO). A decrease in absorption at 340 nm was monitored continuously for 6 h at 30° C. on a multi-mode microplate reader (BioTek). The reaction rate was calculated using the 3 to 4 h time frame. The reaction rate at each concentration of compound was converted to percent inhibition using controls (i.e., reaction with no test compound and reaction with a known inhibitor) and IC50 values were calculated by fitting a four-parameter sigmoidal curve to the data using Prism (GraphPad software).
In the case of `Cc1cc(F)c(NC(=O)NCCC2(C(F)(F)F)CC2)cc1-c1cc(N2CCOCC2)nc(N2CC(N(C)C)C2)n1` [Example 30], the IC50 was at most 100 nM.
With `Cc1cc(F)c(NC(=O)NCCC2(C)CC2)cc1-c1nc(NCCO)cc(N2CCOCC2)n1` [Example 31], the 50% inhibitory concentration (IC50) is at most 100 nM.
Still for that read-out and setting: for `Cc1cc(F)c(NC(=O)NCCC2(C)CC2)cc1-c1cc(OCCO)nc(-c2ccncc2)c1` [Example 32] the value was at most 100 nM.
Same read-out and setting: to `Cc1cc(F)c(NC(=O)NCCC2(C)CC2)cc1-c1cc(OC2CCN(C)CC2)nc(-c2ccncc2)c1` [Example 36] belongs at most 100 nM; to `Cc1ccc(NC(=O)NCCC2(C)CC2)cc1-c1cc(-c2cnn(C)c2)nc(N2CCOCC2)c1` [Example 37], at most 100 nM; to `Cc1cc(F)c(NC(=O)NC2CCC(F)(F)CC2)cc1-c1cc(-c2cnn(C)c2)nc(N2CCOCC2)c1` [Example 39], at most 100 nM.
On to `COC(C)(C)CCNC(=O)Nc1cc(-c2cc(OCCO)nc(-c3ccncc3)c2)c(C)cc1F` [Example 40], for which the 50% inhibitory concentration (IC50) was at most 100 nM.

Another assay deals with A375 cells. Briefly: A375 cell proliferation assay (1), resazurin, 96-well. Format: cell-based. The settings on record: Homo sapiens, A-375, inhibition of cell proliferation. Here is the method:
A375 Cell Proliferation Assay (1)
A375 cells (catalog (#CRL-1619) are obtained from the American Type Culture Collect (ATTC, Manassas, VA). Briefly, cells were grown in DMEM High Glucose supplemented with 10% characterized fetal bovine serum (Invitrogen, Carlsbad, CA) and 1% Penicillin/Streptomycin/L-Glutamine at 37° C., 5% CO2, and 95% humidity. Cells are expanded until reaching 70-95% confluency at which point they are sub-cultured or harvested for assay use. A serial dilution of test compound is dispensed into a 96-well black clear bottom plate in triplicate. Two thousand five hundred cells are added per well in 200 μL complete growth medium in the 96-well plate. Plates are incubated for 67-72 hours at 37° C., 5% CO2, and 95% humidity. At the end of the incubation, 40 μL of a 440 μM solution of resazurin (Sigma, St. Louis, MO) in PBS is added to each well of the plate and plates are incubated for an additional 5-6 hours at 37° C., 5% CO2, and 95% humidity. Plates are read on a Synergy2 or equivalent reader (Biotek, Winooski VT) using an excitation of 540 nm and an emission of 600 nm. Data is analyzed using Prism software (GraphPad, San Diego, CA) to calculate IC50 values.
On the technique in general: Alamar Blue is a resazurin reagent that responds to reducing activity.
Regarding `Cc1cc(F)c(NC(=O)NCCC2(C(F)(F)F)CC2)cc1-c1cc(N2CCOCC2)nc(N2CC(N(C)C)C2)n1` [Example 30], the IC50 was 1000 to 10000 nM.
Still for that read-out and setting: for `Cc1cc(F)c(NC(=O)NCCC2(C)CC2)cc1-c1nc(NCCO)cc(N2CCOCC2)n1` [Example 31] the value was 1000 to 10000 nM; for `Cc1cc(F)c(NC(=O)NCCC2(C)CC2)cc1-c1cc(OCCO)nc(-c2ccncc2)c1` [Example 32], 1000 to 10000 nM.
Take `Cc1cc(F)c(NC(=O)NCCC2(C)CC2)cc1-c1cc(OC2CCN(C)CC2)nc(-c2ccncc2)c1` [Example 36]: the IC50 fell in the range of 1000 to 10000 nM.
The same measure, in the same setting: to `Cc1ccc(NC(=O)NCCC2(C)CC2)cc1-c1cc(-c2cnn(C)c2)nc(N2CCOCC2)c1` [Example 37] belongs 1000 to 10000 nM; to `Cc1cc(F)c(NC(=O)NC2CCC(F)(F)CC2)cc1-c1cc(-c2cnn(C)c2)nc(N2CCOCC2)c1` [Example 39], 1000 to 10000 nM.
Same read-out and setting: to `COC(C)(C)CCNC(=O)Nc1cc(-c2cc(OCCO)nc(-c3ccncc3)c2)c(C)cc1F` [Example 40] belongs 1000 to 10000 nM.

(Values after patent US20230357179A1, “RAF KINASE INHIBITORS AND METHODS OF USE THEREOF” (Deciphera Pharmaceuticals, LLC, priority 2021, published 2023).)
